In ChEMBL document CHEMBL1135171, “Discovery of potent and selective small molecule NPY Y5 receptor antagonists” (Bioorg Med Chem Lett, 2002):
pKi: −log10 of the molar value.

Legend:
[1] = molecular target: T1, Neuropeptide Y receptor type 1 (Homo sapiens, UniProt P25929); experiment: Tested for radioligand binding affinity against membranes from COS-7 cells transiently transfected with Neuropeptide Y receptor type 1; assay type: cell membranes
T1 sequence (P25929 whole entry): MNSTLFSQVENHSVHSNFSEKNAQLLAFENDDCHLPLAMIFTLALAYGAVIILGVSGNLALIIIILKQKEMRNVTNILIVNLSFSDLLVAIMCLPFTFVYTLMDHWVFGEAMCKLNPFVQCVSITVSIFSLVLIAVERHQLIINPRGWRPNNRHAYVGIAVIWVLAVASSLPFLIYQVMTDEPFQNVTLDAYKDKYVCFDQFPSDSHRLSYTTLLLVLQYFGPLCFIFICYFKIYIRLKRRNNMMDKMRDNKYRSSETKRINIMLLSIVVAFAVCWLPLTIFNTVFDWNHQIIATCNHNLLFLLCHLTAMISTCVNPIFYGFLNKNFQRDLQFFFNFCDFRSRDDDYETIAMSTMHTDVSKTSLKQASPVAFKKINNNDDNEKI

[2] = molecular target: T2, Neuropeptide Y receptor type 5 (Homo sapiens, UniProt Q15761); experiment: Tested for radioligand binding affinity against membranes from COS-7 cells transiently transfected with Neuropeptide Y receptor type 5; assay type: cell membranes
T2 sequence (Q15761 whole entry): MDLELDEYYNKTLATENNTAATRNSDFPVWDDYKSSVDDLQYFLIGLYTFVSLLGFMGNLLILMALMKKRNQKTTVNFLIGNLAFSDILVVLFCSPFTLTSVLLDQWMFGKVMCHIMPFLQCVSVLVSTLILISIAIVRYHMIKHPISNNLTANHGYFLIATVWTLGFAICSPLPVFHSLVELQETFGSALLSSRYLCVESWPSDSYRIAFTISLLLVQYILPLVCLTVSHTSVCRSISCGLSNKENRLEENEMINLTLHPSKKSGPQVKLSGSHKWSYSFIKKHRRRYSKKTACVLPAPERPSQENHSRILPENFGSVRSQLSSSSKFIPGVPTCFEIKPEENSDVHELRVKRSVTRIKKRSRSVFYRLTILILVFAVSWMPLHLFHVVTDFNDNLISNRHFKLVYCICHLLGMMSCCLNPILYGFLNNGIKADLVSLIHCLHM

[3] = molecular target: T3, Neuropeptide Y receptor type 1 (Rattus norvegicus, UniProt P21555); experiment: Functional response of NPY to inhibit forskolin-stimulated cAMP in cells stably transfected with Neuropeptide Y receptor type 1
T3 sequence (P21555 whole entry): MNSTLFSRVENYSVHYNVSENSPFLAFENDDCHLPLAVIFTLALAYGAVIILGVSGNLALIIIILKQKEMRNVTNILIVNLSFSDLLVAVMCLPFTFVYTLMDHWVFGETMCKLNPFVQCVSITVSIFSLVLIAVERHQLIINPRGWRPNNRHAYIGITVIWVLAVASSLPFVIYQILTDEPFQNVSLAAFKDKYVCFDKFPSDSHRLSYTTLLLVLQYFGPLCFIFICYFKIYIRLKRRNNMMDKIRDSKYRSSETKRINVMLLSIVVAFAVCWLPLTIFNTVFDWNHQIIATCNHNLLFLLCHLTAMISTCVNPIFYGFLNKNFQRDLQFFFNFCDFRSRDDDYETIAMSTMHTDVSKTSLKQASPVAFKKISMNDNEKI

[4] = molecular target: T4, Neuropeptide Y receptor type 5 (Rattus norvegicus, UniProt Q63634); experiment: Functional response of NPY to inhibit forskolin-stimulated cAMP in cells stably transfected with rat Neuropeptide Y receptor type 5
T4 sequence (Q63634 whole entry): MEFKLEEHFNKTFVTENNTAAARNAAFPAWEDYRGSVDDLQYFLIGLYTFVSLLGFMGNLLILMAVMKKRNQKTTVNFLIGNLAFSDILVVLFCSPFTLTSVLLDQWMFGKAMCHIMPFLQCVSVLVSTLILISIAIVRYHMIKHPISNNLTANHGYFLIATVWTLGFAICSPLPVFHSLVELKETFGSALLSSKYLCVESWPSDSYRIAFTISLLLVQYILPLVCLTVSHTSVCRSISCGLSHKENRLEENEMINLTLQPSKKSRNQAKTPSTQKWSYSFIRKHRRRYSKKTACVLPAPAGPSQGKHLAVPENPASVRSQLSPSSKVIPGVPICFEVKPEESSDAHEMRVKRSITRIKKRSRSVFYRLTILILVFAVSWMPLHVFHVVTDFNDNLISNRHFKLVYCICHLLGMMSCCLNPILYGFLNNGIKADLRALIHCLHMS

[5] = molecular target: T5, Alpha-2C adrenergic receptor (Homo sapiens, UniProt P18825); experiment: Bnding affinity against cloned human Alpha-2C adrenergic receptor was evaluated
T5 sequence (P18825 whole entry): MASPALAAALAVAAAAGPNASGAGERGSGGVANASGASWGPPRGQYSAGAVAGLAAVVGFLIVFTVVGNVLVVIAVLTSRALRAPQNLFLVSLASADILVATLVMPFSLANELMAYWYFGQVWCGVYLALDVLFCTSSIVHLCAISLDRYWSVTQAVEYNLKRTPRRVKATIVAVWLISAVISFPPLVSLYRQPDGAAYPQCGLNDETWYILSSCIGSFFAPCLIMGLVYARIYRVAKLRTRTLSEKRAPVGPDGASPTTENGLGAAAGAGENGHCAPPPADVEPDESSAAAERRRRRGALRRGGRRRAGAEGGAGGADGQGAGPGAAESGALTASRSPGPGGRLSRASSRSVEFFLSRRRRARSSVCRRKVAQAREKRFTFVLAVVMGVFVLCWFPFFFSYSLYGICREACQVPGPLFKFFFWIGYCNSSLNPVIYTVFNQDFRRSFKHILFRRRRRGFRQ

D(2) dopamine receptor = D(2) dopamine receptor (Homo sapiens, UniProt P14416); experiment: Binding affinity against cloned human Dopamine receptor D2 was evaluated
Sequence of D(2) dopamine receptor (P14416 whole entry): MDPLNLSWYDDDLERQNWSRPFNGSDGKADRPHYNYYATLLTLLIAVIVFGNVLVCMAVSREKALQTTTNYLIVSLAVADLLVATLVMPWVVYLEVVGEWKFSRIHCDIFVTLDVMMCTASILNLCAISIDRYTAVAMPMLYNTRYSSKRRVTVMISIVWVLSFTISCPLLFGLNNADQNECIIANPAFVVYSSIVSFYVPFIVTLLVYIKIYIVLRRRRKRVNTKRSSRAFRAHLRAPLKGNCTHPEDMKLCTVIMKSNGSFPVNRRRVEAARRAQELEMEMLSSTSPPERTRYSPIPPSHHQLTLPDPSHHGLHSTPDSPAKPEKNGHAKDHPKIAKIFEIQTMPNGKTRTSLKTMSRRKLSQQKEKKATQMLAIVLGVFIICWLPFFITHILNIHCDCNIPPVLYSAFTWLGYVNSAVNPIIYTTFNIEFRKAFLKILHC

SMILES	pKi [1]	pKi [2]	pKi [3]	pKi [4]	pKi [5]	pKi (D(2) dopamine receptor)
O=[N+]([O-])c1ccccc1S(=O)(=O)NC[C@H]1CC[C@H](CNCc2ccc3ccccc3n2)CC1	4.62					
O=S(=O)(NCCCCCCNCc1ccc2ccccc2c1)c1ccc2ccccc2c1	5.14	6.91				
O=[N+]([O-])c1ccccc1S(=O)(=O)NC[C@H]1CC[C@H](CNCc2ccnc3ccccc23)CC1	4.31	7.55				

The remaining lines, values ahead:

pKi [1]	pKi [2]	pKi [3]	pKi [4]	pKi [5]	pKi (D(2) dopamine receptor)	SMILES
4.84	7.59					O=S(=O)(NC[C@H]1CC[C@H](CNCc2cccc3ccccc23)CC1)c1ccccc1C(F)(F)F
4.89	8.00					O=S(=O)(NC[C@H]1CC[C@H](CNCc2ccc3ccccc3c2)CC1)c1ccccc1C(F)(F)F
4.80	8.10	4.66	7.74	7.00	7.20	O=[N+]([O-])c1ccccc1S(=O)(=O)NC[C@H]1CC[C@H](CNCC2CCc3ccccc3C2)CC1 (some centres undefined)
4.77	8.00					Nc1ccccc1S(=O)(=O)NC[C@H]1CC[C@H](CNCC2CCc3ccccc3C2)CC1 (some centres undefined)
5.45	7.96					O=S(=O)(NC[C@H]1CC[C@H](CNCC2CCc3ccccc3C2)CC1)c1cccc2ccccc12 (some centres undefined)
